Measurements published in PubChem BioAssay (NCI).
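Growth conditions: 96-well plates. Treatment: test compound, 48 hours, 5 concentrations. Analysis: linear interpolation between bracketing concentrations; unreached endpoints set to highest concentration. Here, GI50 denotes the concentration required for 50% inhibition of growth. Definition used: TGI = concentration required for complete inhibition of growth.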

Key:
Test in all cases: inhibition of tumour cell growth, NCI panel, 48 h
[1] = system: SNB-19 CNS
[2] = system: SK-OV-3 ovarian
[3] = system: 786-0 renal
[4] = system: UACC-62 melanoma
[5] = system: MALME-3M melanoma
[6] = system: TK-10 renal
[7] = system: HOP-62 NSCLC
[8] = system: SF-295 CNS
[9] = system: T-47D breast
[10] = system: HCT-15 colon

SMILES: COc1cccc(NC(=O)CC(=O)N2NC(C)C(N=Nc3cccc(C(=O)O)c3)C2=O)c1 (stereo not given)
- TGI [1]: > 100 µM
- TGI [2]: > 100 µM
- TGI [3]: > 100 µM
- TGI [4]: > 100 µM
- TGI [5]: > 100 µM
- TGI [6]: > 100 µM
- TGI [7]: > 100 µM
- TGI [8]: > 100 µM

SMILES: CCOC(=O)C1=C(C)NC2SC(=O)/C(=C\c3ccccc3)N2C1c1ccccc1 (stereo not given)
- GI50 [1]: > 100 µM
- TGI [1]: > 100 µM
- GI50 [2]: > 100 µM
- TGI [2]: > 100 µM
- GI50 [3]: > 100 µM
- TGI [3]: > 100 µM
- GI50 [9]: 38.2 µM
- TGI [9]: > 100 µM
- GI50 [4]: > 100 µM
- TGI [4]: > 100 µM
- GI50 [10]: > 100 µM
- TGI [10]: > 100 µM
- GI50 [6]: 56.2 µM
- TGI [6]: > 100 µM
- GI50 [7]: > 100 µM
- TGI [7]: > 100 µM
- GI50 [8]: > 100 µM
- TGI [8]: > 100 µM

SMILES: N#CCC(=O)N/N=C1\C(=O)N(c2ccc(Cl)cc2)C(=O)C(=O)C1c1nc2ccccc2o1 (stereo not given)
- TGI [1]: > 100 µM
- TGI [2]: > 100 µM
- TGI [3]: > 100 µM
- TGI [4]: > 100 µM
- TGI [10]: > 100 µM
- TGI [5]: > 100 µM
- TGI [6]: > 100 µM
- TGI [7]: > 100 µM
- TGI [8]: > 100 µM

SMILES: C[C@H]1CC(=O)C2=CCCC3(SCCCS3)[C@@H]2[C@H]1CO
- TGI [1]: > 100 µM
- TGI [2]: > 100 µM
- TGI [3]: > 100 µM
- TGI [4]: > 100 µM
- TGI [5]: > 100 µM
- TGI [6]: > 100 µM
- TGI [7]: > 100 µM
- TGI [8]: > 100 µM

SMILES: COc1cc2cc[n+]3c4cc(OC)c(OC)cc4c(C)cc3c2cc1OC
- TGI [1]: > 100 µM
- TGI [2]: > 100 µM
- TGI [3]: > 100 µM
- TGI [4]: > 100 µM
- TGI [10]: > 100 µM
- TGI [5]: > 100 µM
- TGI [6]: > 100 µM
- TGI [7]: > 100 µM
- TGI [8]: > 100 µM

SMILES: Cc1cc(-c2nc(-c3ccc(OC(F)(F)F)cc3)no2)nn1Cc1ccnc(N2CCN(C3CC3)CC2)c1
- GI50 [1]: > 23.1 µM
- TGI [1]: > 100 µM
- GI50 [2]: > 49.6 µM
- TGI [2]: > 100 µM
- GI50 [3]: 13.5 µM
- TGI [3]: > 100 µM
- GI50 [9]: 1.03 µM
- TGI [9]: > 100 µM
- GI50 [4]: 4.23 µM
- TGI [4]: > 49.1 µM
- GI50 [10]: 3.84 µM
- TGI [10]: > 62 µM
- GI50 [5]: 4.77 µM
- TGI [5]: > 55.6 µM
- GI50 [6]: 11.2 µM
- TGI [6]: > 100 µM
- GI50 [8]: < 0.01 µM
- TGI [8]: > 100 µM

SMILES: O=c1c2cc(Br)cc(Br)c2[nH]c(=S)n1-c1ccccc1
- TGI [1]: > 100 µM
- TGI [2]: > 100 µM
- TGI [3]: > 100 µM
- TGI [4]: > 100 µM
- TGI [10]: > 100 µM
- TGI [5]: > 100 µM
- TGI [6]: > 100 µM
- TGI [7]: > 100 µM
- TGI [8]: > 100 µM

SMILES: CN(C)CCN=Cc1c2ccccc2c(=O)n2c1oc1ccccc12
- GI50 [1]: 7.45 µM
- TGI [1]: 21.4 µM
- GI50 [2]: 8.44 µM
- TGI [2]: 24.3 µM
- GI50 [3]: 11.6 µM
- TGI [3]: 25.3 µM
- GI50 [4]: 10.8 µM
- TGI [4]: 23.6 µM
- GI50 [10]: 5.37 µM
- TGI [10]: 22.1 µM
- GI50 [6]: 3.44 µM
- TGI [6]: 14 µM
- GI50 [7]: 12.1 µM
- TGI [7]: 26.7 µM
- GI50 [8]: 2.89 µM
- TGI [8]: 9.71 µM

SMILES: O=c1c2ccccc2c(=O)c2c1cc(Cl)c1[nH]c3c([nH]c12)c(Cl)cc1c(=O)c2ccccc2c(=O)c13
- TGI [1]: > 100 µM
- TGI [2]: > 100 µM
- TGI [3]: > 100 µM
- TGI [4]: > 100 µM
- TGI [10]: > 100 µM
- TGI [5]: > 100 µM
- TGI [6]: > 100 µM
- TGI [7]: > 100 µM
- TGI [8]: > 100 µM

SMILES: C/C(=N/NC(=O)C(N)=O)C(CC(C(=O)Nc1ccccc1C)/C(C)=N\NC(=O)C(N)=O)C(=O)Nc1ccccc1C (stereo not given)
- TGI [1]: > 100 µM
- TGI [2]: > 100 µM
- TGI [3]: > 100 µM
- TGI [5]: > 100 µM
- TGI [6]: > 100 µM
- TGI [7]: > 100 µM
- TGI [8]: > 100 µM

SMILES: O=C(O)CCC1(Br)CCCCC(Br)C1=O (stereo not given)
- TGI [1]: > 100 µM
- TGI [2]: > 100 µM
- TGI [3]: > 100 µM
- TGI [4]: > 100 µM
- TGI [10]: > 100 µM
- TGI [5]: > 100 µM
- TGI [6]: > 100 µM
- TGI [7]: > 100 µM
- TGI [8]: > 100 µM

SMILES: C=C1Oc2nc3ccccc3c(=O)n2C1(C)C
- TGI [1]: > 100 µM
- TGI [2]: > 100 µM
- TGI [3]: > 100 µM
- TGI [4]: > 100 µM
- TGI [10]: > 100 µM
- TGI [5]: > 100 µM
- TGI [6]: > 100 µM
- TGI [7]: > 100 µM
- TGI [8]: > 10 µM

SMILES: CC(=O)OC1C(CCl)OC(N=[N+]=[N-])C(OC(C)=O)C1OC(C)=O (stereo not given)
- TGI [1]: > 100 µM
- TGI [2]: > 100 µM
- TGI [3]: > 100 µM
- TGI [4]: > 100 µM
- TGI [10]: > 100 µM
- TGI [5]: > 100 µM
- TGI [6]: > 100 µM
- TGI [7]: > 100 µM
- TGI [8]: > 100 µM

SMILES: COc1ccc(/C=C/c2cc(N3CCOCC3)c3cc(F)c(F)cc3n2)cc1OC
- GI50 [1]: 1.11 µM
- TGI [1]: 12.4 µM
- GI50 [2]: 1.32 µM
- TGI [2]: 9.17 µM
- GI50 [3]: 0.6 µM
- TGI [3]: 3.8 µM
- GI50 [9]: 0.449 µM
- TGI [9]: 5.69 µM
- GI50 [4]: 0.436 µM
- TGI [4]: 2.24 µM
- GI50 [10]: 0.392 µM
- TGI [10]: 12 µM
- GI50 [6]: 1.14 µM
- TGI [6]: 10.2 µM
- GI50 [7]: 0.667 µM
- TGI [7]: 7.25 µM
- GI50 [8]: 0.653 µM
- TGI [8]: 14.9 µM

SMILES: CC[O-].Cc1ccc2cccc([O-])c2n1.Cc1ccc2cccc([O-])c2n1.Cc1ccc2cccc([O-])c2n1.[Ti+4]
- GI50 [1]: > 53.9 µM
- TGI [1]: > 100 µM
- GI50 [2]: > 68.9 µM
- TGI [2]: > 100 µM
- GI50 [3]: 28.9 µM
- TGI [3]: > 57.9 µM
- GI50 [4]: > 35.3 µM
- TGI [4]: > 52.2 µM
- GI50 [10]: 42.4 µM
- TGI [10]: > 100 µM
- GI50 [5]: > 46 µM
- TGI [5]: > 66.3 µM
- GI50 [6]: 44.2 µM
- TGI [6]: > 83.9 µM
- GI50 [7]: 53.6 µM
- TGI [7]: > 100 µM
- GI50 [8]: 17.5 µM
- TGI [8]: > 62 µM

SMILES: N#Cc1cccc(NC(=O)c2oc3ccccc3c2-c2cnn(-c3ccccc3)c2)c1
- GI50 [1]: 192 µM
- TGI [1]: > 500 µM
- GI50 [2]: > 500 µM
- TGI [2]: > 500 µM
- GI50 [3]: 221 µM
- TGI [3]: > 500 µM
- GI50 [4]: > 500 µM
- TGI [4]: > 500 µM
- GI50 [10]: > 500 µM
- TGI [10]: > 500 µM
- GI50 [5]: 278 µM
- TGI [5]: > 500 µM
- GI50 [6]: 317 µM
- TGI [6]: > 500 µM
- GI50 [7]: 320 µM
- TGI [7]: > 500 µM
- GI50 [8]: 430 µM
- TGI [8]: > 500 µM

SMILES: COC(=O)[C@@]1(C)CC[C@]2(C)CC[C@]3(C)C4=CC=C5C(=CC(=O)C(O)=C5C)[C@]4(C)CC[C@@]3(C)[C@@H]2C1
- GI50 [1]: 0.276 µM
- TGI [1]: 0.936 µM
- GI50 [2]: 0.775 µM
- TGI [2]: 2.01 µM
- GI50 [3]: 0.172 µM
- TGI [3]: 0.315 µM
- GI50 [4]: 0.202 µM
- TGI [4]: 0.467 µM
- GI50 [10]: 0.171 µM
- TGI [10]: 0.421 µM
- GI50 [5]: 0.232 µM
- TGI [5]: 0.446 µM
- GI50 [6]: 0.185 µM
- TGI [6]: 0.449 µM
- GI50 [7]: 0.483 µM
- TGI [7]: 1.54 µM
- GI50 [8]: 0.407 µM
- TGI [8]: 1.62 µM
